According to EP0215701A1, “Esters of cyclopropanecarboxylic acids and 2,3-dihydro-4-phenyl-1H-inden-2-ol, their preparation, their use as parasiticides and compositions containing them” (ROUSSEL-UCLAF, priority 1985, dated 1987):

Tested on: Tétranychus urticae
Test: Adulticide test on Tétranychus urticae (treated bean plants)
Format: in vivo
Settings: bean plants sprayed at different doses, infested with 25 females per leaf, 22-23°C, 60-65% relative humidity; live and dead mites counted 24 h and 48 h after treatment
Source text: On utilise des plants de haricots comportant deux feuilles qui sont traitées au pistolet Fisher à différentes doses des produits à tester. Après séchage, ces plants sont infestés à raison de 25 femelles de Tétranychus urticae par feuille et maintenus à 22-23◊C, 60 - 65% d'humidité relative. Les dénombrements des acariens vivants et morts sont effectués 24 heures et 48 heures après traitement.

Structure (SMILES): CC(C)(C)OC(=O)/C(F)=C\[C@H]1[C@@H](C(=O)OC2Cc3cccc(-c4ccccc4)c3C2)C1(C)C (stereo partly drawn) [Exemple 4, /1R-/1α,3α (E)/ 3-(3-terbutoxy-3-oxo-2-fluoro-1-propényl) -2,2-diméthyl cyclopropane carboxylatede 2,3-dihydro-4-phényl-1H-inden-2-yle]
- CL 50: 173 mg/hl
